Measurements taken from patent US9193687B2 (priority 2007, dated 2015).
Values joined by “and” are separate entries in the source; they are usually repeats but may differ in a detail not shown here. Identical values can stand only once. Counter-ions that a name gives are not always drawn. Like-named read-outs stand apart in the source and are kept apart here.

Tests used:
CCRF-CEM/Taxol = assay: In vitro cytotoxicity, XTT assay, taxol-resistant subline; details: Homo sapiens, CCRF-CEM, 72 h, read-out: Cytotoxicity IC50, CCRF-CEM/Taxol
[1] = system: Human mammary carcinoma (MX-1) tumor cells; assay: In vitro cytotoxicity, SRB assay, 72-hr incubation; details: Homo sapiens, 72 h, read-out: Cytotoxicity IC50, MX-1
[2] = system: human mammary carcinoma MX-1 xenograft; assay: Antitumor therapeutic effect against MX-1 xenograft in nude mice; format: in vivo; details: for Maximal body-weight loss (%): dose and schedule per compound as in Table 3
Procedure: Athymic nude mice bearing the nu/nu gene were obtained from NCI, Frederick, Md. and used for all human tumor xenografts. Male nude mice 6 weeks or older weighing 20-24 g or more were used. Compounds were administered via the tail vein for i.v. injection or infusion as described previously.^64 A typical formulation for chemotherapeutic studies for each drug was dissolved in DSMO to make a 25 mg/ml fresh solution, 0.4 ml of this solution was mixed with 0.3 ml of Tween 80, plus 1.3 ml to make 2 ml of 5 mg/ml solution. Bolus injection volume was 0.1-0.2 ml per mouse. Tumor volume was assessed by measuring length×width×height (or width) by using a caliper. For tumor-bearing nude mice during the course of the experiment, the body weight refers to total weight minus the weight of the tumor. All animal studies were conducted in accordance with the guidelines for the National Institute of Health Guide for the Care and Use of Animals and the protocol approved by the Institutional Animal Care and Use Committee.
The therapeutic effects of a drug against human tumor xenografts in nude mice, under the optimal therapeutic conditions but without any lethality due to drug toxicity, the following degrees of therapeutic effects are defined and calculated by the following formula: […]
where • T0 is the initial tumor size (in mm^3) at beginning of drug treatment; • Tc is tumor size of untreated control group on a given date; and • Tx is tumor size of the drug treated group on a given date.
[formula] • Tumor disappearance (complete remission or CR) is defined by the effect where • [Tx=0] for a period of time (in days) for a proportion of animals (NCR/N), where • N is the total number of animals in the group, and NCR is the number of mice in the group that achieved CR. • Tumor relapse is quantitatively calculated by • [The Day tumor relapsed (Drelp)—The Day CR achieved (DCR)] (Eq. 3) for a proportion of animals (Nrelp/N) where N is the total number of animals in the group, and Nrelp is the number of the mice in the group that relapsed. • The log cell kill (LCK) of the tumor tissue after a given chemotherapy that reached CR is estimated by: LCK=log [2^(Tumor remission in days/Tumor doubling time in days)] (Eq. 4)
Athymic nude mice bearing the nu/nu gene were used for human breast tumor MX-1 xenograft (FIGS. 3 and 4) and human brain glioma U87 GM xenograft (FIG. 5). Nude mice were obtained from National Cancer Institute, Frederick, Md. Male mice 6 weeks old or older weighing 22 g or more were used for experiments with subcutaneous tumor inoculation as described previously.^67 Drug was administrated via the tail vein by iv injection. Tumor volumes were assessed by measuring length×width×height (or width) by using caliper. Vehicle used was 20 μL DMSO in 180 μL saline. All animal studies were conducted in accordance with the guidelines of the U.S. National Institutes of Health Guide for the Care and Use of Animals and the protocol approved by the Institutional Animal Care and Use Committee.

[3] = system: Human colon carcinoma HCT-116 cells; assay: cells
[4] = system: CCRF-CEM human lymphoblastic leukemia cells; assay: cells; details: read-out: Cytotoxicity IC50, CCRF-CEM
lung cancer H1299 = assay: cells; details: Homo sapiens, NCI-H1299, read-out: Cytotoxicity IC50, H1299
lung cancer H460 = assay: cells; details: Homo sapiens, NCI-H460, read-out: Cytotoxicity IC50, H460
prostate cancer (PC3) = assay: cells; details: Homo sapiens, read-out: Cytotoxicity IC50, PC3
[5] = HCT-116, 72 h, read-out: Cytotoxicity IC50, HCT-116
[6] = HCT-116, read-out: Cytotoxicity IC50, HCT-116

Row | Compound | IC50 (CCRF-CEM/Taxol) | IC50 [1] | Therapeutic effect: complete tumor remission (CR), mice with CR/total and day ([2]; i.v. injection, treatment from Day 8, dose and schedule per compound as in Table 3 (30-150 mg/kg)) | Maximal body-weight loss (%) ([2]; i.v. injection) | IC50 [3, 5] | IC50 ([4]; 72 h) | Therapeutic effect: tumor growth suppression ([2]; 75 mg/kg, QDx8, i.v., 1/1 mouse) | IC50 (lung cancer H1299) | IC50 (lung cancer H460) | IC50 (prostate cancer (PC3)) | IC50 [3, 6] | IC50 [4]
1 | COc1cc(NC(=O)Oc2ccc(N(CCCl)CCCl)cc2)cc(Nc2c3ccccc3nc3ccccc23)c1 [BO-1066, [3-(acridin-9-ylamino)-5-methoxyphenyl]carbamic acid 4-[bis(2-chloroethyl)amino]phenyl ester] | 0.31 µM | 0.34 µM | achieved complete tumor remission and 1/1 CR on D22 | 13% | 1.71 µM | 0.21 µM |  |  |  |  |  | 
2 | Cc1cc(NC(=O)Nc2ccc(N(CCCl)CCCl)cc2)cc(Nc2c3ccccc3nc3ccccc23)c1 [BO-1079, 1-[3-(acridin-9-ylamino)-5-methylphenyl]-3-{4-[bis(2-chloroethyl)amino]phenyl}urea] | 0.38 µM | 0.53 µM |  | 9% | 0.8 µM | 0.14 µM | 1/1, >99% tumor |  |  |  |  | 
3 | O=C(CCN1CCCCC1)Nc1ccc(NC(=O)Nc2ccc(N(CCCl)CCCl)cc2)cc1 [BO-2057] |  |  |  |  |  |  |  | 3.03 µM | 1.58 µM | 2.28 µM |  | 
4 | CCN(CC)CCC(=O)Nc1ccc(NC(=O)Nc2ccc(N(CCCl)CCCl)cc2)cc1 [BO-2073, N-(4-(3-(4-(Bis(2-chloroethyl)amino)phenyl)ureido)-phenyl)-3-(diethylamino)-propanamide] |  |  |  |  |  |  |  | 10.3 µM | 1.83 µM | 2.47 µM | 2.09 µM | 0.3 µM
5 | O=C(CCN1CCOCC1)Nc1ccc(NC(=O)Nc2ccc(N(CCCl)CCCl)cc2)cc1 [BO-2074] |  |  |  |  |  |  |  | 15.2 µM | 3.95 µM | 9.74 µM | 7.02 µM | 1.06 µM
6 | O=C(CCN1CCCC1)Nc1ccc(NC(=O)Nc2ccc(N(CCCl)CCCl)cc2)cc1 [BO-2075] |  |  |  |  |  |  |  | 6.43 µM | 1.03 µM | 3.48 µM | 1.48 µM | 0.28 µM
7 | CN(C)CCC(=O)Nc1cccc(NC(=O)Nc2ccc(N(CCCl)CCCl)cc2)c1 [BO-2091, N-(3-(3-(4-(bis(2-chloroethyl)amino)-phenyl)ureido)phenyl)-3-(dimethylamino)-propanamide] |  |  |  |  |  |  |  | 8.99 µM | 16.8 µM | 13.5 µM | 3.28 µM | 0.52 µM
8 | O=C(CN1CCCCC1)Nc1ccc(NC(=O)Nc2ccc(N(CCCl)CCCl)cc2)cc1 [BO-2092, N-(4-(3-(4-(bis(2-chloroethyl)amino)phenyl)ureido)-phenyl)-2-(piperidin-1-yl)-acetamide] |  |  |  |  |  |  |  | 2.52 µM | 1.05 µM | 2.24 µM | 1.5 µM | 0.31 µM
9 | O=C(CN1CCCC1)Nc1ccc(NC(=O)Nc2ccc(N(CCCl)CCCl)cc2)cc1 [BO-2093] |  |  |  |  |  |  |  | 3.41 µM | 0.95 µM | 3.52 µM |  | 0.26 µM
10 | CCN(CC)CC(=O)Nc1ccc(NC(=O)Nc2ccc(N(CCCl)CCCl)cc2)cc1 [BO-2094, N-(4-(3-(4-(Bis(2-chloroethyl)amino)phenyl)ureido)-phenyl)-2-(diethylamino)-acetamide] |  |  |  |  |  |  |  | 3.43 µM | 0.93 µM | 3.57 µM | 1.7 µM | 
11 | CN(C)CC(=O)Nc1ccc(NC(=O)Nc2ccc(N(CCCl)CCCl)cc2)cc1 [BO-2095] |  |  |  |  |  |  |  | 5.36 µM | 1.21 µM | 7.33 µM | 2.54 µM | 0.29 µM
12 | O=C(CN1CCOCC1)Nc1ccc(NC(=O)Nc2ccc(N(CCCl)CCCl)cc2)cc1 [BO-2096] |  |  |  |  |  |  |  | 18.6 µM | 4.74 µM | 16 µM | 6.67 µM | 1.13 µM
13 | O=C(CN1CCC(N2CCCCC2)CC1)Nc1ccc(NC(=O)Nc2ccc(N(CCCl)CCCl)cc2)cc1 [BO-2117] |  |  |  |  |  |  |  | 14.4 µM | 14.9 µM | 7.24 µM | 4.24 µM | 1.14 µM
14 | O=C(CCN1CCC(N2CCCCC2)CC1)Nc1ccc(NC(=O)Nc2ccc(N(CCCl)CCCl)cc2)cc1 [BO-2118] |  |  |  |  |  |  |  | 36 µM | 14.5 µM | 30 µM | 11.1 µM | 0.72 µM
15 | CCN(CC)CCC(=O)Nc1cccc(NC(=O)Nc2ccc(N(CCCl)CCCl)cc2)c1 [BO-2120] |  |  |  |  |  |  |  | 5.77 µM | 6.79 µM | 13 µM | 3.21 µM | 0.86 µM
16 | O=C(CCN1CCCC1)Nc1cccc(NC(=O)Nc2ccc(N(CCCl)CCCl)cc2)c1 [BO-2121] |  |  |  |  |  |  |  | 4.33 µM | 9.84 µM | 10.3 µM | 5.11 µM | 0.67 µM
17 | O=C(CCN1CCCCC1)Nc1cccc(NC(=O)Nc2ccc(N(CCCl)CCCl)cc2)c1 [BO-2147, N-(3-(3-(4-(Bis(2-chloroethyl)amino)phenyl)ureido)-phenyl)-3-(piperidin-1-yl)-propanamide] |  |  |  |  |  |  |  | 4.63 µM | 7.88 µM | 5.73 µM | 3.51 µM | 0.39 µM
18 | O=C(CCN1CCOCC1)Nc1cccc(NC(=O)Nc2ccc(N(CCCl)CCCl)cc2)c1 [BO-2148] |  |  |  |  |  |  |  | 15.9 µM | 38.5 µM | 35.5 µM | 16.8 µM | 3.1 µM
19 | O=C(CN1CCCC1)Nc1cccc(NC(=O)Nc2ccc(N(CCCl)CCCl)cc2)c1 [BO-2151, N-(3-(3-(4-(bis(2-chloroethyl)amino)phenyl)ureido)-phenyl)-2-(pyrrolidin-1-yl)acetamide] |  |  |  |  |  |  |  | 9.36 µM | 6.55 µM | 12.8 µM | 5.41 µM | 3.41 µM
20 | O=C(CN1CCOCC1)Nc1cccc(NC(=O)Nc2ccc(N(CCCl)CCCl)cc2)c1 [BO-2182] |  |  |  |  |  |  |  | 26.4 µM | 19.5 µM | 35.8 µM | 13 µM | 3.87 µM
21 | CCN(CC)CC(=O)Nc1cccc(NC(=O)Nc2ccc(N(CCCl)CCCl)cc2)c1 [BO-2183] |  |  |  |  |  |  |  | 11.7 µM | 5.67 µM | 13 µM | 4.62 µM | 2.01 µM
22 | O=C(CN1CCCCC1)Nc1cccc(NC(=O)Nc2ccc(N(CCCl)CCCl)cc2)c1 [BO-2184] |  |  |  |  |  |  |  | 8.55 µM | 5.62 µM | 10.1 µM | 7.5 µM | 1.35 µM
23 | O=C(CN1CCC(N2CCCCC2)CC1)Nc1cccc(NC(=O)Nc2ccc(N(CCCl)CCCl)cc2)c1 [BO-2188] |  |  |  |  |  |  |  | 12.8 µM | 12.3 µM | 25.9 µM | 6.15 µM | 30.4 µM
24 | CN(C)CC(=O)Nc1cccc(NC(=O)Nc2ccc(N(CCCl)CCCl)cc2)c1 [BO-2189, N-(3-(3-(4-(bis(2-chloroethyl)amino)phenyl)ureido)phenyl)-2-(dimethyl-amino)acetamide] |  |  |  |  |  |  |  | 10.6 µM | 8.74 µM | 19 µM | 9.56 µM | 0.78 µM
25 | O=C(CCN1CCC(N2CCCCC2)CC1)Nc1cccc(NC(=O)Nc2ccc(N(CCCl)CCCl)cc2)c1 [BO-2191, 3-([1,4′-bipiperidin]-1′-yl)-N-(3-(3-(4-(bis(2-chloroethyl)amino)phenyl)ureido)phenyl)propanamide hydrochloride] |  |  |  |  |  |  |  | 11 µM | 14.2 µM | 22.1 µM | 15.7 µM | 1.63 µM
